According to patent US20250314640A1, “SYSTEMS AND METHODS FOR HIGH THROUGHPUT SINGLE MOLECULE TRACKING IN LIVING CELLS” (EIKON THERAPEUTICS, INC., priority 2022, published 2025):
Entries after “also recorded” stand apart in the source; their conditions may differ. Like-named read-outs stand apart in the source and are kept apart here.

Key:
[1] = biological target: T1, Estrogen Receptor (ER) (Homo sapiens, UniProt P03372); experiment: htSMT of HaloTag-ER in U2OS cells (fbound, Dfree; bioactive screen and dose titration); assay type: cell-based; details: for change in fbound of ER: follow-up experiments after the screen (FIG. 12B, 14A, 16), 100 nM in FIG. 14A
T1 construct: expressed in transfected cells
T1 sequence (P03372 1-595): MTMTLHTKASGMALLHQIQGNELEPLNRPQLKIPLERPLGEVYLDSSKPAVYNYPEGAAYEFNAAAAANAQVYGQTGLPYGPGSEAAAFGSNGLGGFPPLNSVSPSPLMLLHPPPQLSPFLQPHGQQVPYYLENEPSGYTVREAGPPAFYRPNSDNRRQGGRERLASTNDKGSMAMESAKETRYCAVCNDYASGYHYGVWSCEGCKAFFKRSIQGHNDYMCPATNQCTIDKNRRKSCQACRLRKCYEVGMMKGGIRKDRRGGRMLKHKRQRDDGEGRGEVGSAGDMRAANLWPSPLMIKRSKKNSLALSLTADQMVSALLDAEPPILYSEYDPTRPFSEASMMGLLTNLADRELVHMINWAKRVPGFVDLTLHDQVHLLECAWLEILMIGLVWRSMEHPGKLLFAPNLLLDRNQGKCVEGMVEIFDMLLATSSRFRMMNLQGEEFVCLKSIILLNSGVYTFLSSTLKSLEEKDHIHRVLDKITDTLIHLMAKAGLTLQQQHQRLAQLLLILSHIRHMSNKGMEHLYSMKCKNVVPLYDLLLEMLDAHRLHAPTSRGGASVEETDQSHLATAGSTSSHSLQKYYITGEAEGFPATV

[2] = biological target: T2, ER (Homo sapiens, UniProt P03372); experiment: western blot of ER after fulvestrant treatment; assay type: cell-based; parameters: host or cells: Halo-ER U2OS (transfected fusion), or MCF7 / T47d (endogenous ER); details: fulvestrant 24 hours prior to lysis; MCF7, T47d, U2OS Halo-ER; FIG. 20A
T2 sequence (P03372 1-595): T1 sequence (P03372 1-595)

[3] = biological target: T2, ER; experiment: kinetic SMT (kSMT) of ER after compound addition; assay type: cell-based; parameters: expressed in transfected cells; details: for t½ of increase in fbound: 100 nM; for time course of the overall effect on fbound: up to four-hour window
[4] = biological target: androgen receptor (AR) (Homo sapiens, UniProt P10275)
[5] = biological target: T2, ER; experiment: residence time imaging of ER (track length survival); assay type: cell-based; parameters: expressed in transfected cells; details: 100 nM HSP90 inhibition, FIG. 16E; normalized to DMSO
[6] = biological target: T3, glucocorticoid receptor (GR) (Homo sapiens, UniProt P04150); experiment: htSMT of Halo-GR in U2OS cells; assay type: cell-based; details: 1 μM antagonist, singly or co-administered with the cognate agonist; FIG. 34D
T3 construct: Because U2OS cells express GR endogenously, HaloTag was inserted right before the stop codon of endogenous NR3C1; endogenous in cells; host or cells: U2OS, CRISPR/Cas9 knock-in at the endogenous NR3C1 locus
T3 sequence (P04150 1-777): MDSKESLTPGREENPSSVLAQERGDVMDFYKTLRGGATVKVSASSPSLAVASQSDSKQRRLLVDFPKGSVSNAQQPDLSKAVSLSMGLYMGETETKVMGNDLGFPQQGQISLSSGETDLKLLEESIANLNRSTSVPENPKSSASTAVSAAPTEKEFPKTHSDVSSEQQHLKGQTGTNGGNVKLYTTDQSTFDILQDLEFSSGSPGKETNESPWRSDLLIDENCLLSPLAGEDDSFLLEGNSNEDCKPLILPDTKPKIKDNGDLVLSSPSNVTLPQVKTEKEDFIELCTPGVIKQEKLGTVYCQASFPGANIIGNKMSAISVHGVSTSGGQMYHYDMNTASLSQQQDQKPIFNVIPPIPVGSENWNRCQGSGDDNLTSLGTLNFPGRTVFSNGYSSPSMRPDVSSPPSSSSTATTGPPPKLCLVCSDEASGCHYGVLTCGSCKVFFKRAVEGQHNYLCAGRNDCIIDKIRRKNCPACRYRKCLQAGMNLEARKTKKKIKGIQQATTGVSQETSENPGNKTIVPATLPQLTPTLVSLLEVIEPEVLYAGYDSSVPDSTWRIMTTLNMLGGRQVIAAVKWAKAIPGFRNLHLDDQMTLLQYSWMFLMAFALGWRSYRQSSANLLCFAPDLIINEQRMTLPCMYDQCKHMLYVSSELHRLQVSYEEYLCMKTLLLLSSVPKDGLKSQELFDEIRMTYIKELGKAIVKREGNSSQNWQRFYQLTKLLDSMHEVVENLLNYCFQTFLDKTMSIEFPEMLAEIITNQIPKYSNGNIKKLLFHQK
Description: Thermo Fisher) at 500 μg/mL, then clonally isolated. […] Between three and six clones were subsequently tested using SMT conditions for response to a control compound, and the most homogenous clones were subsequently expanded for further testing. Unless otherwise specified, all experiments are with a single, clonally isolated cell line. Because U2OS cells express GR endogenously, HaloTag was inserted right before the stop codon of endogenous NR3C1 via homology-directed repair using CRISPR/Cas9. The HaloTag knock-in was validated by imaging using HTL-JF646 staining and through DNA sequencing.
Where appropriate, compounds were serially diluted in an Echo Qualified 384-Well Low Dead Volume Source Microplate (0018544, Beckman Coulter) to generate dose-titration source material.

androgen receptor (AR), sequence (P10275 whole entry): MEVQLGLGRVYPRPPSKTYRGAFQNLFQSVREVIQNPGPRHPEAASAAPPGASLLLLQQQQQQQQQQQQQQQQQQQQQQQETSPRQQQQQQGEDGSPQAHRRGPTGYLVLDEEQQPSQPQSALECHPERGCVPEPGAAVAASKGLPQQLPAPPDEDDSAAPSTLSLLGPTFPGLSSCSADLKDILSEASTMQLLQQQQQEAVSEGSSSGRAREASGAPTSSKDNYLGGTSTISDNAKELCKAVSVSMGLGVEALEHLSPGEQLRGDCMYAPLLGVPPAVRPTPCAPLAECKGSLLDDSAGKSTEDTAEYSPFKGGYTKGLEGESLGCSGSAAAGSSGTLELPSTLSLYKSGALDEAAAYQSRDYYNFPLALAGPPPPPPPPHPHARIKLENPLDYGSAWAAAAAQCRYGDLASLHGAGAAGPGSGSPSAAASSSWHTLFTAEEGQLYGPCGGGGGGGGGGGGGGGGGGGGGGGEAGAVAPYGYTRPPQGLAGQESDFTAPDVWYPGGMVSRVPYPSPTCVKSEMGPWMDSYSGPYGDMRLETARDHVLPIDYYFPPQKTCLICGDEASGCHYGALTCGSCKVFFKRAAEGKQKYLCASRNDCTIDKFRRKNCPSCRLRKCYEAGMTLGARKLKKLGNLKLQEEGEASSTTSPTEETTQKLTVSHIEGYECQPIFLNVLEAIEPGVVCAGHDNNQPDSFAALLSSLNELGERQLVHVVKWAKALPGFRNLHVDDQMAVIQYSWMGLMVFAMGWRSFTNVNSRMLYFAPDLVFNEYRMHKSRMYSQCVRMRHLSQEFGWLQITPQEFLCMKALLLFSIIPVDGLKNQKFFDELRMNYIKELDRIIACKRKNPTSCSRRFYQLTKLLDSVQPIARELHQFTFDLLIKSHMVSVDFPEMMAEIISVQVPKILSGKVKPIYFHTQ

For C[C@]12CC[C@@H]3c4ccc(O)cc4C[C@@H](CCCCCCCCC[S+]([O-])CCCC(F)(F)C(F)(F)F)[C@H]3[C@@H]1CC[C@@H]2O (stereo partly drawn) [fulvestrant], the “change in fbound of ER in bioactive screen” value ([1]; 1 μM compound versus DMSO, 5,067 molecules, two replicates) was “increase in fbound; also recorded: significantly increased fbound” and the “degradation of ER” value [2] was “leads to the degradation of ER”.

With COc1cccc(-c2cc(F)ccc2[C@H]2Cc3nc(N)nc(C)c3C(=O)N2)n1 [HSP990] the “change in fbound of ER” value [1] was “increase in fbound”, the “t½ of increase in fbound” value [3] was 17.5 min and the “time course of the overall effect on fbound” value (from here on “time course … on fbound”) [3] was “reached a plateau after an hour”.

CC(O)c1cc(C(=O)N[C@@H](C)Cn2ccc(-c3ccc(C#N)c(Cl)c3)n2)[nH]n1 (stereo partly drawn) [Darolutamide] was tested, and the “change in AR chromatin binding (fbound)” value [4] was “decrease in chromatin binding”.

With CC(C)C[C@H](NC(=O)[C@H](Cc1ccccc1)NC(=O)c1cnccn1)B(O)O [bortezomib] the “time course … on fbound” value [3] was “slowly increasing over the four-hour measurement window”.

With CC(C)C[C@H](NC(=O)[C@H](CCc1ccccc1)NC(=O)CN1CCOCC1)C(=O)N[C@@H](Cc1ccccc1)C(=O)N[C@@H](CC(C)C)C(=O)[C@@]1(C)CO1 [carfilzomib] the “time course … on fbound” value [3] was “slowly increasing over the four-hour measurement window”.

For CC(C)c1cc(-c2n[nH]c(=O)n2-c2ccc3c(ccn3C)c2)c(O)cc1O [ganetespib], the “change in fbound of ER” value [1] was “increase in fbound”, the “t½ of increase in fbound” value [3] was 19.3 min and the “time course … on fbound” value [3] was “reached a plateau after an hour”. The “decrease in the total number long binding events” value [5] was “four”.

4-hydroxytamoxifen was tested, and the “change in fbound of ER in bioactive screen” value [1] was “significantly increased fbound” and the “maximal increase in ER fbound” value [1] was “lower maximal increases in fbound”.

CN(C)c1ccc(C(c2ccc(N(C)C)cc2)c2cc([N+](=O)[O-])ccc2Cl)cc1 [AL082D06] was tested, and the “change in GR chromatin binding (fbound)” value [6] was “decrease in chromatin binding”.
